Test results: PMC12748989 (Nature Communications, 2025)

Experiments:
[1] = test system: MDA-MB-231 cells
[2] = test system: PBMC; settings: 12.5 µM

Compound	Average (percentage cell inhibition), Dmastoparan MDA-MB231 12.5uM [1] [%]	Average (percentage cell inhibition), Mastoparan PBMC [2] [%]
CC[C@H](C)[C@H](N)C(=O)N[C@@H](CC(N)=O)C(=O)N[C@@H](CCCNC(=N)N)C(=O)N[C@@H](CCCCN)C(=O)N[C@@H](C)C(=O)N[C@@H](CC(C)C)C(=O)N[C@@H](C)C(=O)N[C@@H](C)C(=O)N[C@@H](CC(C)C)C(=O)N[C@@H](C)C(=O)N[C@@H](CCCCN)C(=O)N[C@@H](CCCCN)C(=O)N[C@H](C(=O)N[C@@H](CC(C)C)C(N)=O)[C@@H](C)CC [R3]	24.609	-2.846
CC[C@H](C)[C@H](N)C(=O)N[C@@H](CC(N)=O)C(=O)N[C@H](C(=O)N[C@@H](CCCCN)C(=O)N[C@@H](C)C(=O)N[C@@H](CC(C)C)C(=O)N[C@@H](C)C(=O)N[C@@H](C)C(=O)N[C@@H](CC(C)C)C(=O)N[C@@H](C)C(=O)N[C@@H](CCCCN)C(=O)N[C@@H](CCCCN)C(=O)N[C@H](C(=O)N[C@@H](CC(C)C)C(N)=O)[C@@H](C)CC)[C@@H](C)CC [I3]	30.5933	14.9456
CC[C@H](C)[C@H](N)C(=O)N[C@@H](CC(N)=O)C(=O)N[C@@H](CC(C)C)C(=O)N[C@@H](CCCCN)C(=O)N[C@@H](C)C(=O)N[C@@H](CC(C)C)C(=O)N[C@@H](Cc1c[nH]c2ccccc12)C(=O)N[C@@H](C)C(=O)N[C@@H](CC(C)C)C(=O)N[C@@H](C)C(=O)N[C@@H](CCCCN)C(=O)N[C@@H](CCCCN)C(=O)N[C@H](C(=O)N[C@@H](CC(C)C)C(N)=O)[C@@H](C)CC [W7]	92.6725	70.534
CC[C@H](C)[C@H](N)C(=O)N[C@@H](CC(N)=O)C(=O)N[C@@H](CC(C)C)C(=O)N[C@@H](CCCCN)C(=O)N[C@@H](C)C(=O)N[C@H](C(=O)N[C@@H](C)C(=O)N[C@@H](C)C(=O)N[C@@H](CC(C)C)C(=O)N[C@@H](C)C(=O)N[C@@H](CCCCN)C(=O)N[C@@H](CCCCN)C(=O)N[C@H](C(=O)N[C@@H](CC(C)C)C(N)=O)[C@@H](C)CC)[C@@H](C)O [T6]	9.306	0.8912
CC[C@H](C)[C@H](N)C(=O)N[C@@H](CC(N)=O)C(=O)N[C@@H](CC(C)C)C(=O)N[C@@H](CCCCN)C(=O)N[C@@H](C)C(=O)N[C@@H](CC(C)C)C(=O)N[C@@H](C)C(=O)N[C@H](C(=O)N[C@@H](CC(C)C)C(=O)N[C@@H](C)C(=O)N[C@@H](CCCCN)C(=O)N[C@@H](CCCCN)C(=O)N[C@H](C(=O)N[C@@H](CC(C)C)C(N)=O)[C@@H](C)CC)[C@@H](C)CC [I8]	40.0855	17.9616
CC[C@H](C)[C@H](NC(=O)[C@H](CCCCN)NC(=O)[C@H](CCCCN)NC(=O)[C@H](C)NC(=O)[C@H](CC(C)C)NC(=O)[C@H](C)NC(=O)[C@H](C)NC(=O)[C@H](CC(C)C)NC(=O)[C@H](C)NC(=O)[C@H](CCCCN)NC(=O)[C@H](CC(C)C)NC(=O)[C@H](CC(N)=O)NC(=O)[C@@H](N)CO)C(=O)N[C@@H](CC(C)C)C(N)=O [S1]	31.5771	-13.6432
CC[C@H](C)[C@H](N)C(=O)N[C@@H](CC(N)=O)C(=O)N[C@@H](CC(C)C)C(=O)N[C@@H](CCCCN)C(=O)N[C@@H](C)C(=O)N[C@@H](CC(C)C)C(=O)N[C@@H](C)C(=O)N[C@@H](C)C(=O)N[C@@H](CC(C)C)C(=O)N[C@@H](C)C(=O)N[C@@H](CCCCN)C(=O)N[C@@H](CCCNC(=N)N)C(=O)N[C@H](C(=O)N[C@@H](CC(C)C)C(N)=O)[C@@H](C)CC [R12]	35.2659	-4.156
